Like-named read-outs stand apart in the source and are kept apart here.
Assays:
[1] = biological target: GDP-bound NRAS wild-type protein (Homo sapiens, UniProt P01111); assay: Binding to NRAS by surface plasmon resonance (SPR), KD and KD ratio to KRAS
In short: (§1)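 Running buffer contained 10 µM GDP and 10 mM MgCl2 to keep RAS in the GDP state, with 4% DMSO at pH 7.4. Compounds were flowed at 100 µL/min in 75 s steps of rising concentration over captured biotin-Avi RAS at 30°C. Sensorgrams were fitted 1:1 for KD.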

[2] = tested on: human lung cancer strain NCI-H441; assay: NCI-H441 cell proliferation inhibitory activity (CellTiter-Glo, 4 days); type: cell-based; conditions: read-out: NCl-H441 IC50
In short: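 Step one: dispense the test compound in serial DMSO dilutions. Step three: add the reagent and measure […].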

[3] = biological target: GDP-bound KRAS wild-type protein (Homo sapiens, UniProt P01116); assay: Binding to KRAS by surface plasmon resonance (SPR), dissociation constant KD
In short: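 Captured GDP-RAS (~100–300 RU) was exposed to increasing compound concentrations, 75 s per step, in running buffer with 10 µM GDP, 10 mM MgCl2 and 4% DMSO at pH 7.4.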

HRAS wild-type protein = HRAS wild-type protein (Homo sapiens, UniProt P01112); assay: Binding to HRAS by surface plasmon resonance (SPR), KD and KD ratio to KRAS
In short: as §1

[4] = ratio of KD with respect to GDP-bound NRAS wild-type protein to KD with respect to KRAS
[5] = 50% proliferation inhibitory concentration, four days
[6] = Single Cycle Kinetics, 1:1 binding model
[7] = ratio of KD with respect to HRAS wild-type protein to KD with respect to KRAS
[8] = ratio of KD for GDP-bound NRAS wild-type protein to KD for KRAS
[9] = ratio of KD for HRAS wild-type protein to KD for KRAS

GDP-bound KRAS wild-type protein, sequence (P01116 1-188 isoform P01116-2): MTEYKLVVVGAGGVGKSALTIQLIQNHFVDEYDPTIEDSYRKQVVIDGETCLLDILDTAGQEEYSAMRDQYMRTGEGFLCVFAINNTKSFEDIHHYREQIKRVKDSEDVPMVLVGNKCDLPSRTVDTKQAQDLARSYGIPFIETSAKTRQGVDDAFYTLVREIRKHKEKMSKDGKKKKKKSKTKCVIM
HRAS wild-type protein, sequence (P01112 whole entry): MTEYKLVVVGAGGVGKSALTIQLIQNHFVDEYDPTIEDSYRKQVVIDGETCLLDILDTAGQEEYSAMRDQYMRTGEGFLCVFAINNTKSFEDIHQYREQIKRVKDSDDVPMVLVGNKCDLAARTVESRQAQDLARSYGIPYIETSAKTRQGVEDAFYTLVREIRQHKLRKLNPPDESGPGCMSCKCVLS
GDP-bound NRAS wild-type protein, sequence (P01111 whole entry): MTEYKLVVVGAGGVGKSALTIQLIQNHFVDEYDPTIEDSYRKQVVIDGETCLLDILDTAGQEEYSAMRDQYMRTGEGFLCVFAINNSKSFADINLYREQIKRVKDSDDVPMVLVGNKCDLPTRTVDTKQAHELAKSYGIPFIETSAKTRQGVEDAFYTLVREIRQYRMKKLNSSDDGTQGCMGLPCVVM

| SMILES | IC50 [2, 5] [nM] | Kd [3, 6] [nM] | IC50 ([2]; NCI-H441 cells, 4 days) [nM] | Kd ([3]; Single Cycle Kinetics) [nM] | Kd ([3]; 1:1 binding model) [nM] | NRAS /KRAS [1, 4] | HRAS /KRAS (HRAS wild-type protein; [7]) | NRAS /KRAS [1, 8] | HRAS /KRAS (HRAS wild-type protein; [9]) |
| --- | --- | --- | --- | --- | --- | --- | --- | --- | --- |
| CCO[C@@H]1C[C@H]2C(=O)NC3(CCC3)C(=O)N(C)[C@@H](C3CCCC3)C(=O)N(C)[C@H](C(=O)N(C)C)CC(=O)N(C)[C@@H](CC(C)C)C(=O)N[C@@H]([C@@H](C)CC)C(=O)N(C)CC(=O)N(C)[C@H]3C/C=C\CCN(C3=O)[C@@H](Cc3ccc(C(F)(F)F)cc3)C(=O)N(C)CC(=O)N[C@@H](CCc3ccc(Cl)c(Cl)c3)C(=O)N2C1 [PP1251] | 10.2 | 0.18 | – | – | – | AA (a compound having 20 or more is denoted as AA) | A (a compound having 10 or more and less than 20 is denoted as A) | – | – |
| CC[C@H](C)[C@@H]1NC(=O)[C@H](CC)N(C)C(=O)C[C@@H](C(=O)N(C)C)N(C)C(=O)[C@H](C2CCCC2)N(C)C(=O)C2(CCC2)NC(=O)[C@@H]2CCCN2C(=O)[C@H](CCc2cc(F)c(C(F)(F)F)c(F)c2)NC(=O)CN(C)C(=O)[C@H](Cc2ccc(C(F)(F)F)cc2)N2CC/C=C\C[C@@H](C2=O)N(C)C(=O)CN(C)C1=O [PP1135] | 43.9 | 0.094 | – | – | – | A (a compound having 10 or more and less than 20 is denoted as A) | A (a compound having 10 or more and less than 20 is denoted as A) | – | – |
| CCO[C@@H]1C[C@H]2C(=O)NC3(CC(C)(C)C3)C(=O)N(C)[C@@H](C(CC)CC)C(=O)N(C)[C@H](C(=O)N(C)C)CC(=O)N(C)[C@@H](COC)C(=O)N[C@@H]([C@@H](C)CC)C(=O)N(C)CC(=O)N(C)[C@H]3C/C=C\CCN(C3=O)[C@@H](CC3CCCCC3)C(=O)N(C)CC(=O)N[C@@H](CCc3ccc(C(F)(F)F)c(Cl)c3)C(=O)N2C1 [PP2468] | – | – | 72.2 | – | 1.3 | – | – | AA (a compound having 20 or more is denoted as AA) | A (a compound having 10 or more and less than 20 is denoted as A) |
| CCO[C@@H]1C[C@H]2C(=O)NC3(CCCC3)C(=O)N(C)[C@@H](C3CCCC3)C(=O)N(C)[C@H](C(=O)N(C)C)CC(=O)N(C)[C@@H](CC3CC3)C(=O)N[C@@H]([C@@H](C)CC)C(=O)N(C)CC(=O)N(C)[C@H]3C[C@@H](C)[C@@H](C)CN(C3=O)[C@@H](Cc3ccc(C(F)(F)F)cc3)C(=O)N(C)CC(=O)N[C@@H](CCc3ccc(C(F)(F)F)c(Cl)c3)C(=O)N2C1 [PP1362] | 3.7 | 0.037 | – | – | – | A (a compound having 10 or more and less than 20 is denoted as A) | B (a compound having 3 or more and less than 10 is denoted as B) | – | – |
| CCCOC[C@H]1C(=O)N[C@@H]([C@@H](C)CC)C(=O)N(C)CC(=O)N(C)[C@H]2C/C=C\CCN(C2=O)[C@@H](Cc2ccc(C(F)(F)F)cc2)C(=O)N(C)CC(=O)N[C@@H](CCc2cc(F)c(C(F)(F)F)c(F)c2)C(=O)N2C[C@H](OCC)C[C@H]2C(=O)NC2(CC(C)(C)C2)C(=O)N(C)[C@@H](C2CCCC2)C(=O)N(C)[C@H](C(=O)N(C)C)CC(=O)N1C [PP1398] | 2.3 | 0.032 | – | – | – | A (a compound having 10 or more and less than 20 is denoted as A) | A (a compound having 10 or more and less than 20 is denoted as A) | – | – |
| CCO[C@@H]1C[C@H]2C(=O)NC3(CCC3)C(=O)N(C)[C@@H](C(CC)CC)C(=O)N(C)[C@H](C(=O)N3CCOCC3)CC(=O)N(C)[C@@H](CC(C)C)C(=O)N[C@@H]([C@@H](C)CC)C(=O)N(C)CC(=O)N(C)[C@H]3C/C=C\CCN(C3=O)[C@@H](Cc3ccc(C(F)(F)F)cc3)C(=O)N(C)CC(=O)N[C@@H](CCc3cc(F)c(C(F)(F)F)c(F)c3)C(=O)N2C1 [PP1287] | 49.7 | 0.56 | – | – | – | AA (a compound having 20 or more is denoted as AA) | A (a compound having 10 or more and less than 20 is denoted as A) | – | – |
| C#CCN1CC(=O)N(C)[C@H]2C/C=C\CCN(C2=O)[C@@H](Cc2ccc(C)cc2)C(=O)N(C)CC(=O)N[C@@H](CCc2ccc(C(F)(F)F)c(Cl)c2)C(=O)N2C[C@H](OCC)C[C@H]2C(=O)NC2(CC(C)(C)C2)C(=O)N(C)[C@@H](C2CCCC2)C(=O)N(C)[C@H](C(=O)N(C)C)CC(=O)N(C)[C@@H](CCC)C(=O)N[C@@H](CC(C)C)C1=O [PP2526] | – | – | 54.5 | – | 4 | – | – | A (a compound having 10 or more and less than 20 is denoted as A) | B (a compound having 3 or more and less than 10 is denoted as B) |
| CCO[C@@H]1C[C@H]2C(=O)NC3(CCCC3)C(=O)N(C)[C@@H](C(CC)CC)C(=O)N(C)[C@H](C(=O)N3CCCC3)CC(=O)N(C)[C@@H](COC)C(=O)N[C@@H]([C@@H](C)CC)C(=O)N(C)CC(=O)N(C)[C@H]3C/C=C\CCN(C3=O)[C@@H](CC3CCC(F)(F)CC3)C(=O)N(C)CC(=O)N[C@@H](CCc3cc(F)c(C(F)(F)F)c(F)c3)C(=O)N2C1 [PP1441] | 87.6 | 0.7 | – | – | – | A (a compound having 10 or more and less than 20 is denoted as A) | A (a compound having 10 or more and less than 20 is denoted as A) | – | – |
| CCO[C@@H]1C[C@H]2C(=O)NC3(CCC3)C(=O)N(C)[C@@H](C(CC)CC)C(=O)N(C)[C@H](C(=O)N(C)C)CC(=O)N(C)[C@@H](CC3CC3)C(=O)N[C@@H]([C@@H](C)CC)C(=O)N(C)CC(=O)N(C)[C@H]3C/C=C\CCN(C3=O)[C@@H](CC3CCCCC3)C(=O)N(C)CC(=O)N[C@@H](CCc3cc(F)c(C(F)(F)F)c(F)c3)C(=O)N2C1 [PP1428] | 38.8 | 0.87 | – | – | – | AA (a compound having 20 or more is denoted as AA) | A (a compound having 10 or more and less than 20 is denoted as A) | – | – |

Second part, led by results:

| IC50 [2, 5] [nM] | Kd [3, 6] [nM] | IC50 ([2]; NCI-H441 cells, 4 days) [nM] | Kd ([3]; Single Cycle Kinetics) [nM] | Kd ([3]; 1:1 binding model) [nM] | SMILES | NRAS /KRAS [1, 4] | HRAS /KRAS (HRAS wild-type protein; [7]) | NRAS /KRAS [1, 8] | HRAS /KRAS (HRAS wild-type protein; [9]) |
| --- | --- | --- | --- | --- | --- | --- | --- | --- | --- |
| – | – | 12.2 | 0.17 | – | CCO[C@@H]1C[C@H]2C(=O)NC3(CCC3)C(=O)N(C)[C@@H](C3CCCC3)C(=O)N(C)[C@H](C(=O)N(C)C)CC(=O)N(C)[C@@H](CC(C)C)C(=O)N[C@@H]([C@@H](C)CC)C(=O)N(C)CC(=O)N(C)[C@H]3C/C(F)=C\CCN(C3=O)[C@@H](Cc3ccc(C(F)(F)F)cc3)C(=O)N(C)CC(=O)N[C@@H](CCc3cc(F)c(C(F)(F)F)c(F)c3)C(=O)N2C1 [PP3514] | – | – | B (a compound having 3 or more and less than 10 is denoted as B) | B (a compound having 3 or more and less than 10 is denoted as B) |
| – | – | 36.6 | – | 0.44 | CCC(CC)[C@H]1C(=O)N(C)[C@H](C(=O)N(C)C)CC(=O)N(C)[C@@H](COC)C(=O)N[C@@H]([C@@H](C)CC)C(=O)N(C)CC(=O)N(C)[C@H]2C/C=C\CCN(C2=O)[C@@H](Cc2ccc(C(F)(F)F)cc2)C(=O)N(C)CC(=O)N[C@@H](CCc2ccc(Cl)c(Cl)c2)C(=O)N2C[C@H](OC3CCC3)C[C@H]2C(=O)NC2(CC(C)(C)C2)C(=O)N1C [PP2642] | – | – | AA (a compound having 20 or more is denoted as AA) | A (a compound having 10 or more and less than 20 is denoted as A) |
| – | – | 394 | – | 4.6 | CCC[C@H]1C(=O)N[C@@H](CC(C)C)C(=O)N(CCOC)CC(=O)N(C)[C@H]2C/C=C\CCN(C2=O)[C@@H](Cc2ccc(C)cc2)C(=O)N(C)CC(=O)N[C@@H](CCc2ccc(C(F)(F)F)c(OC)c2)C(=O)N2C[C@H](OCC)C[C@H]2C(=O)NC2(CCC2)C(=O)N(C)[C@@H](C2CCCC2)C(=O)N(C)[C@H](C(=O)N(C)C)CC(=O)N1C [PP2542] | – | – | B (a compound having 3 or more and less than 10 is denoted as B) | B (a compound having 3 or more and less than 10 is denoted as B) |
| – | – | 68.4 | – | 2.8 | CCC[C@H]1C(=O)N[C@@H]([C@@H](C)CC)C(=O)N(C2CC2)CC(=O)N(C)[C@H]2C/C=C\CCN(C2=O)[C@@H](Cc2ccc(C)cc2)C(=O)N(C)CC(=O)N[C@@H](CCc2ccc(Cl)c(Cl)c2)C(=O)N2C[C@H](OCC)C[C@H]2C(=O)NC2(CC(C)(C)C2)C(=O)N(C)[C@@H](CC2CCC2)C(=O)N(C)[C@H](C(=O)N(C)C)CC(=O)N1C [PP2761] | – | – | A (a compound having 10 or more and less than 20 is denoted as A) | A (a compound having 10 or more and less than 20 is denoted as A) |
| – | – | 23.7 | 0.3 | – | C#CCN1CC(=O)N(C)[C@H]2C/C=C\CCN(C2=O)[C@@H](Cc2ccc(C(F)F)cc2)C(=O)N(C)CC(=O)N[C@@H](CCc2cc(F)c(C(F)(F)F)c(F)c2)C(=O)N2C[C@H](OC(C)C)C[C@H]2C(=O)N(C)C2(CCC2)C(=O)N(C)[C@@H](C(CC)CC)C(=O)N(C)[C@H](C(=O)N(C)C)CC(=O)N(C)[C@@H](COCCC)C(=O)N[C@@H]([C@@H](C)CC)C1=O [PP3490] | – | – | A (a compound having 10 or more and less than 20 is denoted as A) | A (a compound having 10 or more and less than 20 is denoted as A) |
| – | – | 73.5 | 0.75 | – | CCCO[C@@H]1C[C@H]2C(=O)NC3(CC(C)(C)C3)C(=O)N(C)[C@@H](C3CCCC3)C(=O)N(C)[C@H](C(=O)N(C)CC)CC(=O)N[C@@H](COCC)C(=O)N[C@@H]([C@@H](C)CC)C(=O)N3C[C@@H](F)C[C@H]3C(=O)N(C)[C@H]3C/C=C\CCN(C3=O)[C@@H](Cc3ccc(C)cc3)C(=O)N(C)CC(=O)N[C@@H](CCc3ccc(C(F)(F)F)c(OC)c3)C(=O)N2C1 [PP3443] | – | – | A (a compound having 10 or more and less than 20 is denoted as A) | A (a compound having 10 or more and less than 20 is denoted as A) |

Source: patent EP4603105A1, “PHARMACEUTICAL COMPOSITION CONTAINING CYCLIC COMPOUND HAVING SELECTIVE KRAS INHIBITORY EFFECT AGAINST HRAS AND NRAS” (CHUGAI SEIYAKU KABUSHIKI KAISHA, priority 2022, dated 2024)
